This is an account of results in patent publication US8889704B2 (Array BioPharma Inc., priority 2011, dated 2014).

Common to all, as to format: biochemical
Experiment [1] concerns the target PIM-1 (Homo sapiens, UniProt P11309). Briefly: Enzyme PIM-1 Assay ([33P]ATP incorporation into PIM2tide, filter plate). To be noted: averaged IC50; 35 μM ATP, 7.5 μM PIM2tide, 0.25 nM PIM-1, 60 min at 22° C. A digest of the protocol: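 Radiometric assay: 0.25 nM PIM-1 phosphorylates 7.5 μM PIM2tide with 35 μM [γ-33P]ATP in 20 mM MOPS pH 7.4, 10 mM MgCl2, 1 mM DTT, 0.005% Tween-20, 60 min at 22 °C. Product captured on P81 filters, scintillation counted; 10-point 3-fold curve from 10 μM top, 2% DMSO, IC50 by 4-parameter logistic fit of POC.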

For experiment [2], the target named is T1, GST-tagged recombinant full-length human Pim-2 (Homo sapiens, UniProt Q9P1W9).
T1 construct: GST-tagged recombinant full-length human Pim-2; GST
T1 sequence (Q9P1W9 whole entry): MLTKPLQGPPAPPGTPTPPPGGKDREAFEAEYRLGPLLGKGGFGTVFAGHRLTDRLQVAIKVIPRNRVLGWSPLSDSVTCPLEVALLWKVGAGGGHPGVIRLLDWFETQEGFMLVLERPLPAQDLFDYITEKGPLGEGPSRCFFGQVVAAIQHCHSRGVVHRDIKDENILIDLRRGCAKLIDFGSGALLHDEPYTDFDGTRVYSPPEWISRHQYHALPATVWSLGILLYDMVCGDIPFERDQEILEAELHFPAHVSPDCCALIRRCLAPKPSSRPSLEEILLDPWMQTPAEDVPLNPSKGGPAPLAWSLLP
Nature of the experiment: PIM-2 Assay (as Example A). To be noted: averaged IC50; 4 μM ATP, 1.0 μM PIM2tide, 1.5 nM Pim-2. A digest of the protocol:
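Radiometric filter-binding assay: GST-tagged full-length human Pim-2 (1.5 nM) phosphorylates 1.0 μM PIM2tide with 4 μM [γ-33P]ATP for 60 min at 22 °C in pH 7.4 MOPS buffer, 2% DMSO. 10-point 3-fold dilutions from 10 μM top dose; IC50 from 4-parameter fit of percent of control.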

For experiment [3], the target named is recombinant rat PIM-3 (Rattus norvegicus, UniProt O70444). Nature of the experiment: PIM-3 Assay (as Example A). To be noted: averaged IC50; 30 μM ATP, 3.75 μM PIM2tide, 0.5 nM PIM-3. The essentials:
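Recombinant rat PIM-3 (0.5 nM) with 3.75 μM PIM2tide and 30 μM [γ-33P]ATP in MOPS pH 7.4 buffer, 60 min at 22 °C; labelled peptide captured on phosphocellulose filters and counted by scintillation. 10-point curve (top dose 10 μM, 2% DMSO); IC50 from 4-parameter fit of percent of control.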

pIC50: −log10 of the molar value. Counter-ions that a name gives are not always drawn.

Chain of PIM-1 (P11309 whole entry, species assumed): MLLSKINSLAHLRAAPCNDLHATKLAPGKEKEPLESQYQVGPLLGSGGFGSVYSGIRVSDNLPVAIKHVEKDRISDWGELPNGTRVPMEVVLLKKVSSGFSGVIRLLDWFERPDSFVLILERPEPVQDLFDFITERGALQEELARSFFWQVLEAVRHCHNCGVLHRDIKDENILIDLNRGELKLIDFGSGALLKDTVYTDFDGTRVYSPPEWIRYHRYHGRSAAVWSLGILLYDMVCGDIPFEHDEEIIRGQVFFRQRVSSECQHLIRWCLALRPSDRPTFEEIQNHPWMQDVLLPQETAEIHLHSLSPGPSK

In the case of `CO[C@H](C)COc1cc2nc(-c3nnc4ccc([C@H](N5CC[C@](C)(N)C5)C(F)(F)F)cn34)ccc2cc1F` [Example 324, (S)-3-methyl-1-((S)-2,2,2-trifluoro-1-(3-(6-fluoro-7-((R)-2-methoxypropoxy)quinolin-2-yl)-[1,2,4]triazolo[4,3-a]pyridin-6-yl)ethyl)pyrrolidin-3-amine di-hydrochloride], the pIC50 was 9.74 in experiment [1], 7.35 in experiment [2] and 9.68 in experiment [3].
The corresponding values for `CO[C@H](C)COc1cc2nc(-c3nnc4ccc([C@@H](N5CC[C@H](N)C5)C(F)(F)F)cn34)ccc2cc1F` [Example 325, (S)-1-((R)-2,2,2-trifluoro-1-(3-(6-fluoro-7-((R)-2-methoxypropoxy)quinolin-2-yl)-[1,2,4]triazolo[4,3-a]pyridin-6-yl)ethyl)pyrrolidin-3-amine di-hydrochloride] are 10.22, 6.99 and 9.89.
As for `COCCOc1ccc2cc(F)c(-c3nnc4ccc([C@@H](N5CC[C@H](N)C5)C(F)(F)F)cn34)nc2c1` [Example 326, (S)-1-((R)-2,2,2-trifluoro-1-(3-(3-fluoro-7-(2-methoxyethoxy)quinolin-2-yl)-[1,2,4]triazolo[4,3-a]pyridin-6-yl)ethyl)pyrrolidin-3-amine], the pIC50 in experiment [1] was 9.51; in experiment [2], 6.23; in experiment [3] it was 8.87.
The corresponding values for `CO[C@H](C)COc1ccc2cc(F)c(-c3nnc4ccc([C@@H](N5CC[C@H](N)C5)C(F)(F)F)cn34)nc2c1` [Example 328, (S)-1-((R)-2,2,2-trifluoro-1-(3-(3-fluoro-7-((R)-2-methoxypropoxy)quinolin-2-yl)-[1,2,4]triazolo[4,3-a]pyridin-6-yl)ethyl)pyrrolidin-3-amine] are 9.48, 6.13 and 8.86.
